# Patent US8828992B2, “Substituted azole derivatives, pharmaceutical composition containing the derivatives, and method for treating Parkinson's disease using the same” (priority 2009, dated 2014)
# Tested on: dopamine (DA) in the striata of MPTP-treated mice
# Assay: Levels of dopamine in the striata of MPTP-treated mice (HPLC)
# Type: in vivo
# Conditions: Mus musculus, po, 168 h, 10 mpk, 7 days after MPTP, read-out: Levels of dopamine (DA) in the striata, compared to a control group %
# Experimental: (§1) A. MPTP (1-methyl-4-phenyl-1,2,3,6-tetrahydropyridine) and drug treatment MPTP (20 mg/kg, free base; Sigma, St. louis, Mo.) was administered to an 8 week old (20-25 g) male C57BL/6 test mouse intraperitoneally three times a day at the interval of 2 hours to construct a model (Breidert et al., 2002; Lichuan Yang, Shuei Sugama, Jason W. Chirichigno, Jason Gregorio, Stefan Lorenzl, Dong H. Shin, Susan E. Browne, Yoshinori Shimizu, Tong H. Joh, M. Flint Beal, l and David S. Alber. (2003) Minocycline Enhances MPTP Toxicity to Dopaminergic Neurons. J Neurosci Res. 74:278-285). In order to observe the protective effects of the compound as a candidate drug, the compound was dissolved in a solution containing 10% dimethylsulfoxide (DMSO), 10% Cremophor, and 40% polyethyleneglycol (PEG), […] treatment. Rasagiline as a control drug was also dissolved in the same solution, and the resulting solution was administered at the same doses in the same manner as above. A control group (Sham) in which MPTP was not administered was constructed by intraperitoneally administering saline solution to the group instead of MPTP in the same manner as above and orally administering the same solution 1 hour before and after PBS treatment.
# The changes of contents of dopamine and dopamine metabolites in the striatum in accordance with administrations of MPTP and the drug were measured by high performance liquid chromatography (HPLC). At 7 days after administration of the drug, the animal was sacrificed by cervical vertebra dislocation and the brain tissues were immediately isolated from the animal. 0.5 ml of iced solution for HPLC analysis (0.1 M perchloric acid and 0.1 mM EDTA) was added to a striatum obtained from the isolated brain tissues, and an ultrasonic grinder was used to prepare a tissue homogenate. The tissue homogenate was centrifuged at 12,000 rpm for 15 minutes, and its supernatant was filtered through nitrocellulose membrane filter (0.2 um, Millipore). For HPLC analysis, uBondapak™ C18 column (4.6×150 mm, particle size 10 μm: Shisheido, Japan) was used, the flow rate of the mobile phase (0.07 M monobasic sodium phosphate), 1 mM sodium octasulfonic acid, 0.1 uM EDTA, 5% acetonitrile, pH 3.2) was maintained at 0.7 ml/min, and the electrode potential of the electrochemical detector (ICA-5000, Japan) was set at 700 mV.
row,SMILES,response vs control in vivo at 10 mg/kg [%]
1,"NC(=O)OCc1cc(-c2ccc(OCc3ccc(Cl)s3)cc2)no1 [Example 62, Carbamic acid 3-[4-(5-chloro-thiophen-2-ylmethoxy)-phenyl]-isoxazol-5-ylmethyl ester]",99.1
2,"NC(=O)OCc1cc(-c2ccc(OCc3cccc(C=NO)c3)cc2)no1 [Example 38, carbamic acid 3-{4-[3-(hydroxyimino-methyl)-benzyloxy]-phenyl}-isoxazol-5-ylmethyl ester]",52.9
3,"CCCCCCOc1ccc(-c2cc(COC(N)=O)on2)cc1 [Example 45, carbamic acid 3-(4-hexyloxy-phenyl)-isoxazol-5-ylmethyl ester]",41.1
4,"Cc1cn(Cc2cc(-c3ccc(OCc4ccccc4)cc3)no2)cn1 [Example 141, 3-(4-benzyloxy-phenyl)-5-(4-methyl-imidazol-1-ylmethyl)-isoxazole]",51.2
5,"NC(=O)OCc1cc(-c2ccc(OCc3ccccc3)c(Br)c2)no1 [Example 6, carbamic acid 3-(4-benzyloxy-3-bromo-phenyl)-isoxazol-5-ylmethyl ester]",112
6,"NC(=O)OCc1cc(-c2ccc(OCc3ccc(C=NO)cc3)cc2)no1 [Example 37, carbamic acid 3-{4-[4-(hydroxyimino-methyl)-benzyloxy]-phenyl}-isoxazol-5-ylmethyl ester]",79.2
7,"NC(=O)OCc1cc(-c2ccc(OCc3cccc(F)c3)cc2)no1 [Example 12, carbamic acid 3-[4-(3-fluoro-benzyloxy)-phenyl]-isoxazol-5-ylmethyl ester]",78.8

# Target: T1, Monoamineoxidase B type human-derived enzyme (Homo sapiens, UniProt P27338)
# T1 sequence (P27338 1-520): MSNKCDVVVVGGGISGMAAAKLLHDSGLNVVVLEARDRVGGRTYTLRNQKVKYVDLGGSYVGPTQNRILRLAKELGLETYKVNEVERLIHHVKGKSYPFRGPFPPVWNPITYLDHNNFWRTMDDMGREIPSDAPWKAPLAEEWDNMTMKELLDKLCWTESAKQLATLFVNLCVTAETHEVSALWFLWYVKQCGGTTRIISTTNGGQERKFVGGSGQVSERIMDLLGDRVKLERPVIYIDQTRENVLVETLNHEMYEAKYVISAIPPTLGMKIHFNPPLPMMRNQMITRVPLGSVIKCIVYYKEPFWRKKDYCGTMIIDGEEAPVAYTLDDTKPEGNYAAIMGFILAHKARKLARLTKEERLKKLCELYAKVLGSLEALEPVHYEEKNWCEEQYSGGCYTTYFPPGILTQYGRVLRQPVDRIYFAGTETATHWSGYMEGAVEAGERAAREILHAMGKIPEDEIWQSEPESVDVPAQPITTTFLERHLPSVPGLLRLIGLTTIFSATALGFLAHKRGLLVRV
# Assay: Inhibitory effects on the activity of MAO-B (Amplex Red fluorescence, benzylamine substrate)
# Type: biochemical
# Conditions: read-out: Inhibitory effects (%) on the activity of MAO-B
# How it was run: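 Human MAO-B, diluted 1:200 in 0.05 M sodium phosphate pH 7.4, was pre-incubated with compound for 30 min. It was then mixed 1:1 with working buffer holding 400 μM Amplex Red, 2 U/ml HRP and 2 mM benzylamine (working-buffer levels). Fluorescence (Ex 563/Em 587 nm) was read over 30 min.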
row,SMILES,inhibition at 0.01 µM [%]
1,"NC(=O)OCc1cc(-c2ccc(OCc3ccc(Cl)s3)cc2)no1 [Example 62, Carbamic acid 3-[4-(5-chloro-thiophen-2-ylmethoxy)-phenyl]-isoxazol-5-ylmethyl ester]",98.6
2,"CCCCCCOc1ccc(-c2cc(COC(N)=O)on2)cc1 [Example 45, carbamic acid 3-(4-hexyloxy-phenyl)-isoxazol-5-ylmethyl ester]",87.6

# Same assay, conditions: treatment concentration 10 nM; read-out: Inhibitory effects (%) on the activity of MAO-B
row,SMILES,inhibition at 0.01 µM [%]
1,"NC(=O)OCc1cc(-c2ccc(OCc3cccc(C=NO)c3)cc2)no1 [Example 38, carbamic acid 3-{4-[3-(hydroxyimino-methyl)-benzyloxy]-phenyl}-isoxazol-5-ylmethyl ester]",91.7
2,"Cc1cn(Cc2cc(-c3ccc(OCc4ccccc4)cc3)no2)cn1 [Example 141, 3-(4-benzyloxy-phenyl)-5-(4-methyl-imidazol-1-ylmethyl)-isoxazole]",92.2
3,"NC(=O)OCc1cc(-c2ccc(OCc3ccccc3)c(Br)c2)no1 [Example 6, carbamic acid 3-(4-benzyloxy-3-bromo-phenyl)-isoxazol-5-ylmethyl ester]",90.7
4,"NC(=O)OCc1cc(-c2ccc(OCc3ccc(C=NO)cc3)cc2)no1 [Example 37, carbamic acid 3-{4-[4-(hydroxyimino-methyl)-benzyloxy]-phenyl}-isoxazol-5-ylmethyl ester]",92.3
5,"NC(=O)OCc1cc(-c2ccc(OCc3cccc(F)c3)cc2)no1 [Example 12, carbamic acid 3-[4-(3-fluoro-benzyloxy)-phenyl]-isoxazol-5-ylmethyl ester]",94.1

# Tested on: dopamine (DA) in the striatum of a MPTP-treated mouse
# Assay: Combined administration with Levodopa group: dopamine in the striatum of MPTP-treated mouse (HPLC)
# Type: in vivo
# Conditions: compound 1 mg/kg PO co-administered with Levodopa group (Levodopa 50 mg/kg + Benzerazide 25 mg/kg IP); 1 hr after Levodopa
# Experimental: MPTP (20 mg/kg, free base; Sigma, St. louis, Mo.) was administered to an 8 week old (20-25 g) male C57BL/6 test mouse intraperitoneally at the interval of 2 hours to construct a model.
# In order to observe the effects of combined administration of a compound of the present invention and Levodopa, the compound of the present invention was dissolved in a solution containing 0.02 ml of dimethylsulfoxide (DMSO), 0.02 ml of Cremophor, 0.08 ml of polyethyleneglycol (PEG), and 0.08 ml of physiological saline. The resulting solution was orally administered at doses of 1 mg/kg one week after the MPTP treatment, and a Levodopa group containing Levodopa at 50 mg/kg and Benzerazide at 25 mg/kg was intraperitoneally administered 1 hour later.
# A single administration of the Levodopa group in the following Table 4 indicates values resulting from a MPTP (toxin) treatment followed by an administration of the Levodopa group compared to the treatment results of a Levodopa single administration group of Levodopa and Benzerazide.
# At 1 hour and 3 hours after administration of Levodopa, the animals were sacrificed by cervical vertebra dislocation and the brain tissues were immediately isolated from the animals. 0.5 me of iced solution for HPLC analysis (0.1 M perchloric acid and 0.1 mM EDTA) was added to a striatum obtained from the isolated brain tissues, and an ultrasonic grinder was used to prepare a tissue homogenate. The tissue homogenate was centrifuged at 12,000 rpm for 15 minutes, and its supernatant was filtered through nitrocellulose membrane filter (0.2 um, Millipore). For HPLC analysis, uBondapak™ C18 column (4.6×150 mm, particle size 10 μm: Shisheido, Japan) was used, the flow rate of the mobile phase (0.07 M monobasic sodium phosphate, 1 mM sodium octasulfonic acid, 0.1 uM EDTA, 5% acetonitrile, pH 3.2) was maintained at 0.5 me/min, and the electrode potential of the electrochemical detector (CouloChem III, ESA, Japan) was set at 350 mV.
row,SMILES,"Concentration of dopamine compared to a control group %, 1 hr [%]"
1,"NC(=O)OCc1cc(-c2ccc(OCc3ccc(Cl)s3)cc2)no1 [Example 62, Carbamic acid 3-[4-(5-chloro-thiophen-2-ylmethoxy)-phenyl]-isoxazol-5-ylmethyl ester]",204.8
2,"NC(=O)OCc1cc(-c2ccc(OCc3ccccc3)c(Br)c2)no1 [Example 6, carbamic acid 3-(4-benzyloxy-3-bromo-phenyl)-isoxazol-5-ylmethyl ester]",220.87

# Same assay, conditions: compound 1 mg/kg PO co-administered with Levodopa group (Levodopa 50 mg/kg + Benzerazide 25 mg/kg IP); 3 hr after Levodopa
row,SMILES,"Concentration of dopamine compared to a control group %, 3 hr [%]"
1,"NC(=O)OCc1cc(-c2ccc(OCc3ccc(Cl)s3)cc2)no1 [Example 62, Carbamic acid 3-[4-(5-chloro-thiophen-2-ylmethoxy)-phenyl]-isoxazol-5-ylmethyl ester]",65.4
2,"NC(=O)OCc1cc(-c2ccc(OCc3ccccc3)c(Br)c2)no1 [Example 6, carbamic acid 3-(4-benzyloxy-3-bromo-phenyl)-isoxazol-5-ylmethyl ester]",59.8

# Tested on: MPTP-induced mouse model
# Assay: Tail suspension test in MPTP-induced mouse model of Parkinson's disease
# Type: in vivo
# Conditions: Mus musculus, 168 h; administration concentration 10 (10 mg/kg), oral, 7 days after MPTP; % of control group (Sham); read-out: Mobility (%)
# Experimental: as §1
# A tail suspension test was performed in order to measure the induction degree of behavioral dysfunctions in accordance with administration of MPTP and a drug. At 7 days after administration of the drug, a round stainless steel rod (width: 1 cm) was affixed to a cage (width: 16 cm, height: 40 cm) 35 cm above from the surface shielded by black wooden structures in the left and right sides to perform experiments. The time for which the animal moved for a total period of 6 minutes was measured in seconds to evaluate the drug action.
# Mobility refers to an expression of the measurement of the time for which the animal moved with its tail hung high as a percentage compared to the measurement of a control group.
row,SMILES,response vs control in vivo at 10 mg/kg [%]
1,"NC(=O)OCc1cc(-c2ccc(OCc3ccc(Cl)s3)cc2)no1 [Example 62, Carbamic acid 3-[4-(5-chloro-thiophen-2-ylmethoxy)-phenyl]-isoxazol-5-ylmethyl ester]",97.3
2,"NC(=O)OCc1cc(-c2ccc(OCc3cccc(C=NO)c3)cc2)no1 [Example 38, carbamic acid 3-{4-[3-(hydroxyimino-methyl)-benzyloxy]-phenyl}-isoxazol-5-ylmethyl ester]",73
3,"CCCCCCOc1ccc(-c2cc(COC(N)=O)on2)cc1 [Example 45, carbamic acid 3-(4-hexyloxy-phenyl)-isoxazol-5-ylmethyl ester]",114
4,"Cc1cn(Cc2cc(-c3ccc(OCc4ccccc4)cc3)no2)cn1 [Example 141, 3-(4-benzyloxy-phenyl)-5-(4-methyl-imidazol-1-ylmethyl)-isoxazole]",94.6
5,"NC(=O)OCc1cc(-c2ccc(OCc3ccccc3)c(Br)c2)no1 [Example 6, carbamic acid 3-(4-benzyloxy-3-bromo-phenyl)-isoxazol-5-ylmethyl ester]",82.9
6,"NC(=O)OCc1cc(-c2ccc(OCc3ccc(C=NO)cc3)cc2)no1 [Example 37, carbamic acid 3-{4-[4-(hydroxyimino-methyl)-benzyloxy]-phenyl}-isoxazol-5-ylmethyl ester]",77.5
7,"NC(=O)OCc1cc(-c2ccc(OCc3cccc(F)c3)cc2)no1 [Example 12, carbamic acid 3-[4-(3-fluoro-benzyloxy)-phenyl]-isoxazol-5-ylmethyl ester]",85.3
